# Patent US10294202B2, “Pyrrolidinones as herbicides” (FMC Corporation, priority 2013, dated 2019)
# Experiments:
# flatsedge, rice = test: Test F flood (paddy) test; assay type: in vivo, Cyperus iria; conditions: 21 d, scale 0-100
# Source text: (§1) Three plastic pots (ca. 16-cm diameter) per rate were partially filled with sterilized Tama silt loam soil comprising a 35:50:15 ratio of sand, silt and clay and 2.6% organic matter. Separate plantings for each of the three pots were as follows. Seeds from the U.S. of monochoria (Monochoria vaginalis), sedge, umbrella (small-flower umbrella sedge, Cyperus difformis), bulrush, […] bulrush, Scirpus juncoides), and […] (purple […] coccinea), were planted into one 16-cm pot for each rate. Seeds from the U.S. of flatsedge, rice (rice flatsedge, Cyperus iria), sprangletop, Brdd. (bearded sprangletop, Leptochloa fascicularis), one stand of 9 or 10 water seeded rice seedlings (Rice, W.S. Jap, Oryza sativa cv. 'Japonica-[…]' or Rice, W.S. Ind, 'Indica'), and two stands of 3 or 4 seedlings of rice, transplanted (transplanted rice, Oryza sativa cv. 'Japonica-[…]') were planted into one 16-cm pot for each rate. Seeds from the U.S. of barnyardgrass (Echinochloa crus-galli), […] (common […], Alisma plantago-aquatica), and watergrass, late (late watergrass, Echinochloa oryzicola) were planted into one 16-cm pot for each rate. Plantings were sequential so that crop and weed species were at the 2.0 to 2.5-leaf stage at time of treatment. Potted plants were grown in a greenhouse with day/night temperature settings of 30/27° C., and supplemental balanced lighting was provided to maintain a 16-h photoperiod. Test pots were maintained in the greenhouse until test completion. At time of treatment, test pots were flooded to 3 cm above the soil surface, treated by application of test compounds directly to the paddy water, and then maintained at that water depth for the duration of the test. Effects of treatments on rice and weeds were visually evaluated by comparison to untreated controls after 21 d. Plant response ratings, summarized in Table F, are based on a scale of 0 to 100 where 0 is no effect and 100 is complete control. A dash (-) response means no test result.
# sedge, umbrella = test: Test F flood (paddy) test; assay type: in vivo, Cyperus difformis; conditions: 21 d, scale 0-100
# Source text: as §1
# bulrush, hardstem = test: Test F flood (paddy) test; assay type: in vivo, Scirpus juncoides; conditions: 21 d, scale 0-100
# Source text: as §1, with “Potted plants were grown in a greenhouse with day/night temperature settings of 30/27° C., and supplemental balanced lighting was provided to maintain a 16-h photoperiod. Test pots were maintained in the greenhouse until test completion. At time of treatment, test pots were flooded to 3 cm above the soil surface, treated by application of test compounds directly to the paddy water, and then maintained at that water depth for the duration of the test.” left out, “Plant response ratings, summarized in Table F, are based on a scale of 0 to 100 where 0 is no effect and 100 is complete control. A dash (-) response means no test result.” left out
# redstem = test: Test F flood (paddy) test; assay type: in vivo, Ammannia coccinea; conditions: 21 d, scale 0-100
# Source text: as §1
# pigweed, palmer = test: Test E preemergence herbicide test; assay type: in vivo, Amaranthus palmeri; set-up: key: 0 = no effect, 100 = complete control
# Source text: (§2) Seeds of plant species selected from corn (Zea mays), soybean (Glycine max), velvetleaf (Abutilon theophrasti), lambsquarters (Chenopodium album), wild poinsettia (Euphorbia heterophylla), pigweed, palmer (palmer pigweed, Amaranthus palmeri), waterhemp (common waterhemp, Amaranthus rudis), surinam grass (Brachiaria decumbens), crabgrass, large (large crabgrass, Digitaria sanguinalis), crabgrass, Brazil (Brazilian crabgrass, Digitaria horizontalis), panicum, fall (fall panicum, Panicum dichotomiflorum), foxtail, giant (giant foxtail, Setaria faberii), foxtail, green (green foxtail, Setaria viridis), goosegrass (Eleusine indica), johnsongrass (Sorghum halepense), ragweed (common ragweed, Ambrosia elatior), barnyardgrass (Echinochloa crus-galli), sandbur (southern sandbur, Cenchrus echinatus), arrowleaf […] rhombifolia), ryegrass, Italian (Italian ryegrass, Lolium multiflorum), dayflower, VA (Virginia dayflower, Commelina virginica), field bindweed (Convolvulus arvensis), morningglory (Ipomoea coccinea), nightshade (eastern black nightshade, Solanum ptycanthum), kochia (Kochia scoparia), nutsedge, yellow (yellow nutsedge, Cyperus esculentus), cocklebur (common cocklebur, Xanthium strumarium), smartweed (ladysthumb smartweed, Polygonum Persicaria) and beggarticks (hairy beggarticks, Bidens pilosa), were planted into a silt loam soil and treated preemergence with test chemicals formulated in a non-phytotoxic solvent mixture which included a surfactant. Treated plants and controls were maintained in a greenhouse for 21 days, after which time all species were compared to controls and visually evaluated. Plant response ratings, summarized in Table E, are based on a scale of 0 to 100 where 0 is no effect and 100 is complete control. A dash (-) response means no test result.
# cocklebur = test: Test E preemergence herbicide test; assay type: in vivo, Xanthium strumarium; set-up: key: 0 = no effect, 100 = complete control
# Source text: as §2
# deadnettle = test: Test C postemergence herbicide test; assay type: in vivo, Lamium amplexicaule
# Source text: (§3) At the same time, plants selected from these crop and weed species and also barley (winter barley, Hordeum vulgare), […]), chickweed (common chickweed, Stellaria media), deadnettle (henbit deadnettle, Lamium amplexicaule), and canarygrass (littleseed canarygrass, Phalaris minor) were planted in pots containing Redi-Earth® planting medium (Scotts Company, 14111 Scottslawn Road, Marysville, Ohio 43041) comprising spaghnum peat moss, vermiculite, wetting agent and starter nutrients and treated with postemergence applications of test chemicals formulated in the same manner. Plants ranged in height from 2 to 18 cm (1- to 4-leaf stage) for postemergence treatments. Treated plants and controls were maintained in a greenhouse for 13 to 15 days, after which time all species were compared to controls and visually evaluated. Plant response ratings, summarized in Table C, are based on a scale of 0 to 100 where 0 is no effect and 100 is complete control. A dash (-) response means no test result.
# barley (winter barley) = test: Test C postemergence herbicide test; assay type: in vivo, Hordeum vulgare
# Source text: as §3
# canarygrass = test: Test C postemergence herbicide test; assay type: in vivo, Phalaris minor
# Source text: as §3
# windgrass = test: Test C postemergence herbicide test; assay type: in vivo, Apera spica-venti
# Source text: as §3
# Rice, W.S. Ind = test: Test F flood (paddy) test; assay type: in vivo, Oryza sativa Indica; conditions: 21 d, scale 0-100
# Source text: as §1
# waterplantain = test: Test F flood (paddy) test; assay type: in vivo, Alisma plantago-aquatica; conditions: 21 d, scale 0-100
# Source text: as §1
# [1] = 31 g ai/ha, scale 0 (no effect) to 100 (complete control)
# [2] = 62 g ai/ha, scale 0 to 100 (0 no effect, 100 complete control)
# [3] = 125 g ai/ha, scale 0 to 100 (0 no effect, 100 complete control)
# [4] = 250 g ai/ha, scale 0 to 100 (0 no effect, 100 complete control)
compound,measurement,setting,value
O=C1NCC(c2cccc(C(F)(F)F)c2)C1C(=O)Nc1ccccc1F (racemic) [Compound 3],"Plant response rating, Flatsedge, Rice","flatsedge, rice; 250 g ai/ha",0
same,"Plant response rating, Flatsedge, Rice","flatsedge, rice; 500 g ai/ha",20
same,"Plant response rating, Sedge, Umbrella","sedge, umbrella; 250 g ai/ha",0
same,"Plant response rating, Sedge, Umbrella","sedge, umbrella; 500 g ai/ha",0
same,"Plant response rating, Bulrush, Hardstem","bulrush, hardstem; 250 g ai/ha",0
same,"Plant response rating, Bulrush, Hardstem","bulrush, hardstem; 500 g ai/ha",30
same,"Plant response rating, Redstem",redstem; 250 g ai/ha,0
same,"Plant response rating, Redstem",redstem; 500 g ai/ha,20
O=C1NCC(c2ccc(F)cc2)C1C(=O)Nc1ccccc1F (racemic) [Compound 16],"Plant response rating, Pigweed, Palmer","pigweed, palmer; 16 g ai/ha",0
same,"Plant response rating, Pigweed, Palmer","pigweed, palmer; 31 g ai/ha",0
same,"Plant response rating, Pigweed, Palmer","pigweed, palmer; 62 g ai/ha",0
same,"Plant response rating, Pigweed, Palmer","pigweed, palmer; 125 g ai/ha",0
same,"Plant response rating, Pigweed, Palmer","pigweed, palmer; 250 g ai/ha",0
same,"Plant response rating, Cocklebur",cocklebur; 16 g ai/ha,0
same,"Plant response rating, Cocklebur",cocklebur; 31 g ai/ha,0
same,"Plant response rating, Cocklebur",cocklebur; 62 g ai/ha,0
same,"Plant response rating, Cocklebur",cocklebur; 125 g ai/ha,0
same,"Plant response rating, Cocklebur",cocklebur; 250 g ai/ha,0
O=C1NCC(c2cc(F)c(F)c(F)c2)C1C(=O)Nc1ccccc1F (racemic) [Compound 34],"Plant response rating, Deadnettle",deadnettle; [1],0
same,"Plant response rating, Deadnettle",deadnettle; [2],0
same,"Plant response rating, Deadnettle",deadnettle; [3],0
same,"Plant response rating, Deadnettle",deadnettle; [4],0
same,"Plant response rating, Barley",barley (winter barley); [1],0
same,"Plant response rating, Barley",barley (winter barley); [2],0
same,"Plant response rating, Barley",barley (winter barley); [3],0
same,"Plant response rating, Barley",barley (winter barley); [4],0
same,"Plant response rating, Canarygrass",canarygrass; [1],0
same,"Plant response rating, Canarygrass",canarygrass; [2],0
same,"Plant response rating, Canarygrass",canarygrass; [3],0
same,"Plant response rating, Canarygrass",canarygrass; [4],0
same,"Plant response rating, Windgrass",windgrass; [1],0
same,"Plant response rating, Windgrass",windgrass; [2],0
same,"Plant response rating, Windgrass",windgrass; [3],0
same,"Plant response rating, Windgrass",windgrass; [4],5
O=C1NCC(c2ccccc2)C1C(=O)Nc1ccccc1F (racemic) [Compound 81],"Plant response rating, Barley",barley (winter barley); [1],0
same,"Plant response rating, Barley",barley (winter barley); [2],0
same,"Plant response rating, Barley",barley (winter barley); [3],0
same,"Plant response rating, Barley",barley (winter barley); [4],0
same,"Plant response rating, Canarygrass",canarygrass; [1],0
same,"Plant response rating, Canarygrass",canarygrass; [2],0
same,"Plant response rating, Canarygrass",canarygrass; [3],0
same,"Plant response rating, Canarygrass",canarygrass; [4],0
same,"Plant response rating, Windgrass",windgrass; [1],0
same,"Plant response rating, Windgrass",windgrass; [2],0
same,"Plant response rating, Windgrass",windgrass; [3],20
same,"Plant response rating, Windgrass",windgrass; [4],20
O=C1NCC(c2cccc(C(F)(F)F)c2)C1C(=O)Nc1ccc(F)cc1F (racemic) [Compound 207],"Plant response rating, Rice, W.S. Ind","Rice, W.S. Ind; 125 g ai/ha",0
same,"Plant response rating, Rice, W.S. Ind","Rice, W.S. Ind; 250 g ai/ha",0
same,"Plant response rating, Rice, W.S. Ind","Rice, W.S. Ind; 500 g ai/ha",10
O=C1NCC(c2ccc(C(F)(F)F)c(F)c2)C1C(=O)Nc1cccc(F)c1F (racemic) [Compound 247],"Plant response rating, Flatsedge, Rice","flatsedge, rice; 125 g ai/ha",0
same,"Plant response rating, Flatsedge, Rice","flatsedge, rice; 250 g ai/ha",0
same,"Plant response rating, Flatsedge, Rice","flatsedge, rice; 500 g ai/ha",0
same,"Plant response rating, Flatsedge, Rice","flatsedge, rice; 1000 g ai/ha",0
same,"Plant response rating, Flatsedge, Rice","flatsedge, rice; 2000 g ai/ha",35
same,"Plant response rating, Sedge, Umbrella","sedge, umbrella; 125 g ai/ha",0
same,"Plant response rating, Sedge, Umbrella","sedge, umbrella; 250 g ai/ha",0
same,"Plant response rating, Sedge, Umbrella","sedge, umbrella; 500 g ai/ha",0
same,"Plant response rating, Sedge, Umbrella","sedge, umbrella; 1000 g ai/ha",0
same,"Plant response rating, Sedge, Umbrella","sedge, umbrella; 2000 g ai/ha",0
same,"Plant response rating, Redstem",redstem; 125 g ai/ha,0
same,"Plant response rating, Redstem",redstem; 250 g ai/ha,0
same,"Plant response rating, Redstem",redstem; 500 g ai/ha,0
same,"Plant response rating, Redstem",redstem; 1000 g ai/ha,50
same,"Plant response rating, Redstem",redstem; 2000 g ai/ha,55
same,"Plant response rating, Waterplantain",waterplantain; 125 g ai/ha,80
same,"Plant response rating, Waterplantain",waterplantain; 250 g ai/ha,85
same,"Plant response rating, Waterplantain",waterplantain; 500 g ai/ha,90
same,"Plant response rating, Waterplantain",waterplantain; 1000 g ai/ha,90
same,"Plant response rating, Waterplantain",waterplantain; 2000 g ai/ha,90
O=C1NCC(c2cccc(Br)c2)C1C(=O)Nc1ccccc1F (centres unmarked) [Compound 66],"Plant response rating, Cocklebur",cocklebur; 16 g ai/ha,0
same,"Plant response rating, Cocklebur",cocklebur; 31 g ai/ha,0
same,"Plant response rating, Cocklebur",cocklebur; 62 g ai/ha,0
O=C1NCC(c2ccc(C(F)(F)F)cc2)C1C(=O)Nc1ccc(F)c(F)c1F (centres unmarked) [Compound 232],"Plant response rating, Pigweed, Palmer","pigweed, palmer; 31 g ai/ha",0
same,"Plant response rating, Pigweed, Palmer","pigweed, palmer; 62 g ai/ha",0
same,"Plant response rating, Pigweed, Palmer","pigweed, palmer; 125 g ai/ha",80
same,"Plant response rating, Pigweed, Palmer","pigweed, palmer; 250 g ai/ha",65
CN1CC(c2ccc(F)cc2)C(C(=O)Nc2cccc(F)c2F)C1=O (centres unmarked) [Compound 271],"Plant response rating, Rice, W.S. Ind","Rice, W.S. Ind; 64 g ai/ha",0
same,"Plant response rating, Rice, W.S. Ind","Rice, W.S. Ind; 125 g ai/ha",15
same,"Plant response rating, Rice, W.S. Ind","Rice, W.S. Ind; 250 g ai/ha",30
same,"Plant response rating, Rice, W.S. Ind","Rice, W.S. Ind; 500 g ai/ha",60
